Reference: article PMC7179958 (CPT: Pharmacometrics & Systems Pharmacology, 2020)

Key:
[1] = Fraction unbound in hepatocytes, Rapid Equilibrium Dialysis (RED) device; format: in vitro ADME; settings: human, heat inactivated hepatocytes, RED device
Method: Fraction Unbound in Hepatocytes. The estimation of the fraction unbound in hepatocytes at equilibrium can be obtained using multiple techniques: heat inactivated hepatocytes (3); linear regression obtained using the logD7.4 (4); parameter estimation (1, 3, 5, 6) or as separate binding rate constants determined experimentally (7). […] The RED device works with low volumes across a medium chamber (500 µL, white) and incubation chamber containing the hepatocytes (300 µL, red), and as such has been reported to even out the non-specific binding (NSB) between the membrane and wells, thereby improving recovery (8). The free fraction in the incubation (fu.inc) is calculated as:
fu.inc= [medium chamber] Whiteincubation chamber(Red) . (Eq.S1)
The amount of non-specific binding (NSB) to the labware is important to understand the recovery from the RED device experiment to evaluate the reliability of fu.inc: […]

[2] = Semimechanistic PBPK model simulation in simulated healthy volunteers; design: species or system human; settings: PBPK model value
From the text: Uptake is inhibited by the opposing drug in X 3 via the respective uptake concentration at half of the maximum uptake velocity (K m.up.X) shown as the inhibition constant (K I.up). Passive movement of drug into and out of the liver is through clearances P dif.X and P def.X, respectively. Both drugs are cleared through biliary excretion (CLbi.X) into the gallbladder (X 5), and into X 2 where they can be reabsorbed.
The micro‐rate constants for transporter‐mediated uptake and passive uptake were scaled to macro‐rate constants (see Table 2 ) and then empirically scaled up to the human body (83 kg, healthy adult; ^23 see Table 2 ).
The ODE PBPK model (see Figure 1 for schematic and Supplemental Material for the set of ODEs) was developed using desolve ^27 in R‐studio (v1.1.463, R‐Studio Inc., Boston, MA) running R‐project version 3.6.0 ^28 and was similar to that used for eltrombopag and rosuvastatin. ^5 All figures in this article were generated either within Inkscape (0.93, Inkscape.org, Boston, MA) or cowplot, ggplot2, ^29 , ^30 extrafont, ^31 and Cairo. ^32

[3] = design: method as in earlier work; settings: eltrombopag; minimum value of FDA draft guidance when plasma protein binding ≥ 0.99; cited from earlier work

- fraction unbound ([1]; overnight, pitavastatin 0.3, 10 and 100 nmol/ml, eltrombopag 30 nmol/ml, read-out: f u.inc, fraction unbound in the incubation): 0.04
- recovery ([1]; read-out: analytical recovery): 10%
- CLmet.X, metabolic clearance ([2]; Eqs. 10 and 11): 6.8 mL/min/liver
- CLbi.X, biliary clearance ([2]; Eqs. 12 and 13): 13 mL/min/liver
SMILES: CC1=NN(c2ccc(C)c(C)c2)C(=O)/C1=N\Nc1cccc(-c2cccc(C(=O)O)c2)c1O [eltrombopag, Eltrombopag]
- f u.pl, fraction unbound in the plasma set for static R value [3]: 0.01
